Results reported in ChEMBL document CHEMBL1126747, “Multiple copy simultaneous search and construction of ligands in binding sites: application to inhibitors of HIV-1 aspartic proteinase” (J Med Chem, 1993).
pKi: −log10 of the molar value. Starred links: 1 amine or outer side, 2 acyl side, 3 side chain; linkers in the order of their positions; H or OH if unused. Non-standard residues stand in square brackets, D forms with d. Residues, ends and D or L forms follow the SMILES beside them. X1 = CC(C)C[C@H](N[*:1])[C@@H](O)C[C@H](C(=O)[*:2])C(C)C

Biological target: Human immunodeficiency virus type 1 protease (Human immunodeficiency virus 1, UniProt Q72874)
Assay: Binding affinity against HIV-1 aspartic proteinase was determined

Structure (SMILES) | pKi
CCCC[C@@H](CN[C@@H](CCCC)C(=O)N[C@@H](CCC(N)=O)C(=O)N[C@@H](CCCNC(=N)N)C(N)=O)NC(=O)[C@@H](NC(=O)[C@@H](NC(C)=O)[C@@H](C)O)[C@@H](C)CC | 6.11
CC[C@H](C)[C@H](NC(=O)[C@@H](C[C@H](O)[C@H](CC(C)C)NC(=O)[C@H](CC(N)=O)NC(=O)[C@H](CCC(N)=O)NC(=O)[C@H](CO)NC(=O)[C@@H](N)C(C)C)C(C)C)C(=O)N[C@H](C(=O)O)C(C)C (H-VSQN[X1]IV-OH) | > 9.00
